Source: patent publication US9044015B2, “Heterocyclic compounds as pesticides” (Bayer CropScience AG, priority 2010, dated 2015)

Experiments:
Myzus persicae = test: Myzus test (spray treatment); format: in vivo; conditions: foliar, application rate 500 g/ha, sprayed Chinese cabbage leaf discs, all stages of green peach aphid, read-out: efficacy in % (aphids killed)
Experimental: Solvent 78 parts by weight of acetone • • 1.5 parts by weight of dimethylformamide
Emulsifier: 0.5 part by weight of alkylaryl polyglycol ether
To prepare an appropriate active ingredient preparation, 1 part by weight of active ingredient is mixed with the stated amounts of solvent and emulsifier, and the concentrate is diluted with emulsifier-containing water to the desired concentration.

[1] = Determination of the log P values (formic acid method)
Experimental: 1) Description of Method for Determination of the log P Values (Formic Aid Method)
Eluents for determination in the acidic range (pH 3.4):
Eluent A: acetonitrile+1 ml of formic acid/liter. Eluent B: water+0.9 ml of formic acid/liter.
The lambda max values were determined in the maxima of the chromatographic signals using the UV spectra from 200 nm to 400 nm.

[2] = reverse-phase C18 HPLC column, pH 3.4, logP (HCOOH), final compounds table, HPLC reverse-phase C18, acidic range pH 3.4, 55° C.

| chromatographic logP [1, 2] | chromatographic logP ([1]; pH 3.4, logP (HCOOH)) | chromatographic logP ([1]; pH 3.4, log P (HCOOH)) | chromatographic logP ([1]; reverse-phase C18 HPLC column, pH 3.4, log P (HCOOH), preparation examples, HPLC-MS) | SMILES | pest or weed control at 500 g/ha (Myzus persicae) |
| --- | --- | --- | --- | --- | --- |
| 1.43 | – | – | – | CCC(=O)NS(=O)(=O)c1cccc(-c2cnn(-c3cccnc3)c2)n1 [Compound 42] | 100% |
| 1.79 | – | – | – | O=C(NS(=O)(=O)C(F)F)c1cccc(-c2cnc(-c3cncc(F)c3)s2)n1 [Compound 11] | 100% |
| – | 1.77 | – | – | CCS(=O)(=O)NC(=O)c1cccc(-c2cnn(-c3cccnc3)c2)n1 [Compound 25] | 100% |
| 2.94 | – | – | – | O=C(NS(=O)(=O)c1ccccc1)c1cccc(-c2cnc(-c3cncc(F)c3)s2)n1 [Compound 13] | 100% |
| – | 1.79 | 1.79 | – | CS(=O)(=O)NC(=O)c1cccc(-c2nnc(-c3cncc(F)c3)s2)n1 [Compound 3, 6-[5-(5-Fluoropyridin-3-yl)-1,3,4-thiadiazol-2-yl]-N-(methylsulphonyl)pyridine-2-carboxamide] | 100% |
| – | 2.98 | – | – | CCN(CC)S(=O)(=O)NC(=O)c1cccc(-c2cnn(-c3cncc(F)c3)c2)n1 [Compound 39] | 100% |
| – | 1.63 | – | – | CCS(=O)(=O)NC(=O)c1cccc(-c2cnn(-c3cncnc3)c2)n1 [Compound 7] | 100% |
| 2.33 | – | – | – | CCS(=O)(=O)NC(=O)c1cccc(-c2cnc(-c3cncc(F)c3)s2)n1 [Compound 18] | 100% |
| 1.68 | – | – | 1.68 | CS(=O)(=O)NC(=O)c1nc(-c2cnn(-c3cncc(F)c3)c2)cs1 [Compound 46, 4-[1-(5-Fluoropyridin-3-yl)-1H-pyrazol-4-yl]-N-(methylsulphonyl)-1,3-thiazole-2-carboxamide] | 100% |
| – | 1.48 | – | – | CCS(=O)(=O)Nc1cccc(-c2cnn(-c3cccnc3)c2)n1 [Compound 19] | 100% |
| 1.96 | – | – | – | CN(C)S(=O)(=O)NC(=O)c1cccc(-c2cnn(-c3cccnc3)c2)n1 [Compound 27] | 100% |
| – | 2.97 | – | – | O=C(NS(=O)(=O)Cc1ccccc1)c1cccc(-c2cnc(-c3cncc(F)c3)s2)n1 [Compound 21] | 80% |
| 3 | – | – | – | Cc1noc(C)c1S(=O)(=O)NC(=O)c1cccc(-c2cnc(-c3cncc(F)c3)s2)n1 [Compound 58] | 100% |
| 2.35 | – | – | – | O=C(NS(=O)(=O)C1CC1)c1cccc(-c2cnn(-c3cncc(F)c3)c2)n1 [Compound 29] | 100% |
| – | 1.86 | 1.86 | – | O=C(NS(=O)(=O)C(F)(F)F)c1cccc(-c2cnc(-c3cncc(F)c3)s2)n1 [Compound 2, 6-[2-(5-Fluoropyridin-3-yl)-1,3-thiazol-5-yl]-N-[(trifluoromethyl)sulphonyl]pyridine-2-carboxamide] | 100% |
| 2.89 | – | – | – | O=C(NS(=O)(=O)Cc1ccccc1)c1cccc(-c2cnn(-c3cncc(F)c3)c2)n1 [Compound 33] | 100% |
| 2.42 | – | – | – | O=C(NS(=O)(=O)CC(F)(F)F)c1cccc(-c2nnc(-c3cncc(F)c3)s2)n1 [Compound 73] | 100% |
| 2.24 | – | – | – | O=C(NS(=O)(=O)c1ccccc1)c1cccc(-c2cnn(-c3cncnc3)c2)n1 [Compound 23] | 90% |
| – | 3.09 | – | – | CC(C)N(C)S(=O)(=O)NC(=O)c1cccc(-c2cnc(-c3cncc(F)c3)s2)n1 [Compound 60] | 100% |
| – | 1.3 | 1.3 | – | CC(=O)NS(=O)(=O)c1cccc(-c2cnc(-c3cccnc3)s2)n1 [Compound 69, N-({6-[2-(Pyridin-3-yl)-1,3-thiazol-5-yl]pyridin-2-yl}sulphonyl)acetamide] | 100% |

| chromatographic logP [1, 2] | chromatographic logP ([1]; pH 3.4, logP (HCOOH)) | chromatographic logP ([1]; pH 3.4, log P (HCOOH)) | chromatographic logP ([1]; reverse-phase C18 HPLC column, pH 3.4, log P (HCOOH), preparation examples, HPLC-MS) | SMILES | pest or weed control at 500 g/ha (Myzus persicae) |
| --- | --- | --- | --- | --- | --- |
| – | 1.97 | – | – | COCCS(=O)(=O)NC(=O)c1cccc(-c2nnc(-c3cncc(F)c3)s2)n1 [Compound 74] | 90% |
| – | 1.56 | – | – | CS(=O)(=O)NC(=O)c1cccc(-c2cnc(-c3cccnc3)s2)n1 [Compound 12] | 100% |
| – | 2.54 | – | – | CN(C)S(=O)(=O)NC(=O)c1cccc(-c2cnc(-c3cncc(F)c3)s2)n1 [Compound 53] | 100% |
| – | 1.17 | 1.17 | – | CC(=O)NS(=O)(=O)c1cccc(-c2cnn(-c3cccnc3)c2)n1 [Compound 41, N-({6-[1-(Pyridin-3-yl)-1H-pyrazol-4-yl]pyridin-2-yl}sulphonyl)acetamide] | 100% |
| – | 2.21 | – | – | CCS(=O)(=O)NC(=O)c1cccc(-c2cnn(-c3cncc(F)c3)c2)n1 [Compound 26] | 100% |
| – | 1.76 | – | – | O=C(NS(=O)(=O)C1CC1)c1cccc(-c2cnn(-c3cncnc3)c2)n1 [Compound 28] | 80% |
| – | 2.05 | – | – | CS(=O)(=O)NC(=O)c1cccc(-c2cnc(-c3cncc(F)c3)s2)n1 [Compound 9] | 100% |
| 2.28 | – | – | – | CS(=O)(=O)N(CC#N)C(=O)c1cccc(-c2cnc(-c3cncc(F)c3)s2)n1 [Compound 65] | 90% |
| – | 3.47 | – | – | CC(C1CC1)N(C)S(=O)(=O)NC(=O)c1cccc(-c2cnc(-c3cncc(F)c3)s2)n1 (stereo not shown) [Compound 61] | 100% |
| – | 2.31 | – | – | CC(C)S(=O)(=O)NC(=O)c1cccc(-c2nnc(-c3cncc(F)c3)s2)n1 [Compound 72] | 100% |
| – | 1.85 | – | – | O=C(NS(=O)(=O)C1CC1)c1cccc(-c2cnn(-c3cccnc3)c2)n1 [Compound 30] | 100% |
| 2.4 | – | – | – | CS(=O)(=O)NC(=O)c1cccc(-c2cnc(-c3cncc(Cl)c3)s2)n1 [Compound 17] | 100% |
| – | 2.82 | – | – | O=C(NS(=O)(=O)c1ccccc1)c1cccc(-c2cnn(-c3cncc(F)c3)c2)n1 [Compound 31] | 100% |
| 2.42 | – | – | – | CN(C)S(=O)(=O)NC(=O)c1cccc(-c2cnn(-c3cncc(F)c3)c2)n1 [Compound 16] | 100% |
| 2.27 | – | – | – | CN(C(=O)c1cccc(-c2cnc(-c3cncc(F)c3)s2)n1)S(C)(=O)=O [Compound 52] | 100% |
| – | 2.58 | – | – | O=C(NS(=O)(=O)CC(F)(F)F)c1cccc(-c2cnc(-c3cncc(F)c3)s2)n1 [Compound 57] | 100% |
| – | 1.43 | – | – | COCCS(=O)(=O)Nc1cccc(-c2cnn(-c3cccnc3)c2)n1 [Compound 10] | 80% |
| – | 2.49 | – | – | CCN(CC)S(=O)(=O)NC(=O)c1cccc(-c2cnn(-c3cccnc3)c2)n1 [Compound 40] | 100% |
| 2.38 | – | – | – | CC(C)(C)S(=O)(=O)NC(=O)c1cccc(-c2nnc(-c3cncc(F)c3)s2)n1 [Compound 77] | 100% |
| 1.43 | – | – | – | CC(=O)Nc1nnc(S(=O)(=O)NC(=O)c2cccc(-c3nnc(-c4cncc(F)c4)s3)n2)s1 [Compound 76] | 100% |
